The record followed here is ChEMBL document CHEMBL3232872, “Cytotoxic constituents from Lobaria scrobiculata and a comparison of two bioassays for their evaluation” (J Nat Prod, 2014).

Data set [1] has as its system HL-60. As to the kind of experiment: Cytotoxicity against human HL60 cells after 48 hrs by WST-1 assay. It is filed as functional, cell-based. The note with it: HL-60, 48 h. On the technique in general: Formazan colour is commonly taken as a measure of viable cells.
Data set [2] has as its system Vero. Put plainly: Cytotoxicity against African green monkey Vero cells after 48 hrs by Alamar Blue assay. In kind it is cell-based. Particulars: Chlorocebus sabaeus. (The colour change of resazurin is a common sign of viable cells or microbes.)
For data set [3], the system named is Vero. As to the kind of experiment: Cytotoxicity against African green monkey Vero cells after 24 hrs by Alamar Blue assay. It is filed as cell-based. Particulars: Chlorocebus sabaeus.
Data set [4] deals with HeLa. As to the kind of experiment: Cytotoxicity against human HeLa cells after 48 hrs by WST-1 assay. It is filed as functional, cell-based.
The test system of data set [5] is HL-60. Put plainly: Cytotoxicity against human HL60 cells assessed as metabolic activity at 50 ug/mL after 24 hrs by WST-1 assay. In kind it is functional, cell-based.
The test system of data set [6] is HeLa. As to the kind of experiment: Cytotoxicity against human HeLa cells after 24 hrs by WST-1 assay. In kind it is functional, cell-based.
Data set [7] is described as follows: Chemical stability of the compound in methanol measured immediately post compound addition by LC-MS analysis. In kind it is physicochemical. The note with it: read-out: Stability.
The test system of data set [8] is HL-60. As to the kind of experiment: Cytotoxicity against human HL60 cells after 24 hrs by WST-1 assay. Particulars: HL-60, 24 h. It is filed as functional, cell-based.
Data set [9] has as its system HL-60. Put plainly: Cytotoxicity against human HL60 cells assessed as decrease in cell viability at 50 ug/mL after 24 hrs by trypan blue assay. In kind it is functional, cell-based.
Data set [10] in a line: Chemical stability of the compound in methanol measured at 24 hrs by LC-MS analysis. It is filed as physicochemical. The note with it: read-out: Stability.
The nature of data set [11]: Chemical stability of the compound in methanol measured at 48 hrs by LC-MS analysis. In kind it is physicochemical. The note with it: read-out: Stability.
A short description of data set [12]: Chemical stability of the compound in methanol measured at 72 hrs by LC-MS analysis. Particulars: read-out: Stability. In kind it is physicochemical.
Data set [13] is described as follows: Drug degradation in methanol assessed as 2,3,4 trihydroxy-6-propylbenzoic acid methyl ester formation after 72 hrs by LC-MS analysis. It is filed as physicochemical.
For data set [14], the system named is HL-60. As to the kind of experiment: Cytotoxicity against human HL60 cells assessed as decrease in cell viability at 10 ug/mL measured over 72 hrs by trypan blue assay. In kind it is functional, cell-based.
Data set [15] can be described thus: Drug degradation in methanol assessed as divaricatinic acid methyl ester formation after 72 hrs by LC-MS analysis. It is filed as physicochemical.
Data set [16] has as its system HL-60. As to the kind of experiment: Cytotoxicity against human HL60 cells assessed as metabolic activity at 10 ug/mL measured over 72 hrs by WST-1 assay. It is filed as functional, cell-based.
The subject of data set [17] is HL-60. Put plainly: Cytotoxicity against human HL60 cells after 72 hrs. It is filed as functional, cell-based. Particulars: HL-60, 72 h.

SMILES strings stand for the structures. Activity calls are given as the source filed them. No cut-off for these calls is given here.

What is called IC50 is the concentration that inhibits the measured activity by half. Consider `COc1cc(C)c2c(c1C=O)Oc1c(C=O)c(C(=O)O)c(O)c(C)c1OC2=O`, for which the concentration for half-maximal inhibition (IC50) in [1] is above 10 µM; in data set [2], above 150 µM; in [3] it was above 150 µM; in [4], above 10 µM; in data set [6] it was above 10 µM; in data set [8] it was above 10 µM. The outcome in data set [5] was inactive. Besides, the remaining at 0 h in [7] was 94.1%. In [9], the result was Active. In addition, in data set [10], the remaining at 24 h stood at 88.5%. Moreover, the remaining at 48 h in [11] is 89.6%. The remaining at 72 h in data set [12] worked out at 89.5%.
As to `CCCc1cc(O)c(O)c(O)c1C(=O)OC`, the IC50 was above 10 µM in data set [1]; above 150 µM in data set [2]; above 150 µM in data set [3]; above 10 µM in data set [4]; above 10 µM in data set [6]; above 10 µM in [8]. Further, the remaining at 0 h in [7] worked out at 97.8%. Besides, in [10], the remaining at 24 h amounted to 95%. For the same molecule, in [11], the remaining at 48 h was 94.6%. In addition, in data set [12], the remaining at 72 h is 94.8%.
As to `COc1cc(C)c2c(c1C=O)Oc1c(c(C)c(O)c3c1C(O)OC3=O)OC2=O` (centres undefined) [STICTIC ACID], the 50% inhibitory concentration (IC50) in data set [1] was above 10 µM; in data set [2], above 150 µM; in data set [3], above 150 µM; in data set [4], above 10 µM; in [6], above 10 µM; in data set [8], above 10 µM. Moreover, the outcome in data set [5] was inactive. Further, the remaining at 0 h in data set [7] stood at 89.7%. Besides, the outcome in [9] was Active. Further, the remaining at 24 h in data set [10] amounted to 90.1%. Moreover, the remaining at 48 h in data set [11] stood at 91.8%. Also, the remaining at 72 h in data set [12] came to 91.8%.
As to `CCCc1cc(OC)cc(O)c1C(=O)Oc1c(O)cc(CCC)c(C(=O)OC)c1O`, the IC50 in data set [1] is 7.6 µM; in data set [2], above 150 µM; in data set [3], above 150 µM; in data set [4], above 10 µM; in data set [6], above 10 µM; in [8], above 10 µM. Besides, the Stability entry in data set [13] and in [15] was “Unstable” throughout. Further, the remaining at 0 h in data set [7] worked out at 99.8%. In addition, the result in [14] and in data set [16] was Active. The remaining at 24 h in data set [10] amounted to 63.8%. Further, the remaining at 48 h in data set [11] is 35.3%. For the same molecule, the remaining at 72 h in data set [12] was found to be 22.1%.
In the case of `CC(=O)C1=C(O)C=C2Oc3c(C(C)=O)c(O)c(C)c(O)c3[C@@]2(C)C1=O` [(+)-USNIC ACID], the IC50 in data set [1] is 1.7 µM; in [2], above 150 µM; in data set [3], above 150 µM; in data set [4] it was above 10 µM; in [6], above 10 µM; in data set [8], 5.4 µM. The IC50 in data set [17] amounted to 48.5 µM. The remaining at 0 h in data set [7] was found to be 99.9%. The remaining at 24 h in [10] turned out to be 99.9%. The remaining at 48 h in [11] came out at 99.9%. Besides, the remaining at 72 h in data set [12] turned out to be 99.9%.
With `CCCc1cc(O)cc(O)c1C(=O)OC`, the IC50 was above 10 µM in data set [1]; above 150 µM in [2]; above 150 µM in data set [3]; above 10 µM in data set [4]; above 10 µM in data set [6]; above 10 µM in data set [8]. In addition, in data set [7], the remaining at 0 h was determined as 99.8%. Also, the remaining at 24 h in [10] worked out at 99.9%. In [11], the remaining at 48 h is 99.9%. Also, in data set [12], the remaining at 72 h was determined as 99.9%.
